# Patent US11395490B2, “Herbicidal composition” (SYNGENTA CROP PROTECTION, LLC, priority 2005, dated 2022)
# Columns and labels:
# Format in all cases: in vivo
# Details in all cases: 21 days after treatment
# [1] = tested on: Euphorbia heterophylla (EPHHL); experiment: Post-emergence test, Euphorbia heterophylla
# From the text: (§1) The herbicidal action to be expected, We, for a given combination of two herbicides can be calculated as follows (see COLBY, S. R. “Calculating synergistic and antagonistic response of herbicide combinations”. Weeds 15, pages 20-22; 1967): We=X+[Y·(100−X)/100] wherein: X=% herbicidal action in the case of treatment with active ingredient (A) using an application rate of p kg per hectare, in comparison with untreated control (=0%). Y=% herbicidal action in the case of treatment with active ingredient (B) using an application rate of q kg per hectare, in comparison with untreated control. We=expected herbicidal action (% herbicidal action in comparison with untreated control) after treatment with active ingredient (A) and active ingredient (B) at a rate of application of p+q kg of active ingredient per hectare. If the action actually observed is greater than the expected value We, there is a synergistic effect. Trial Description, Pre-Emergence Test: Monocotyledonous and dicotyledonous test plants are sown in standard soil in plastics pots. The plants tested were: Maize (ZEAMX), Ipomea purpurea (PHBPU), Euphorbia heterophylla (EPHHL), Panicum millenacearum (PANMI). Immediately after sowing, the test compounds in aqueous suspension are applied by spraying (200 litres of water/ha). (A) was formulated as a SC50, and (B1), (B2) and (B3) were formulated as WP25; 1% adjuvant crop oil concentrate (Agridex) (v/v) was added to all treatments. The compounds were applied alone and in combination as tank mixtures. The rates of application depend on the optimum concentrations determined under field conditions and greenhouse conditions. The test plants are then cultivated in a greenhouse under optimum conditions. Evaluation of the tests is made after 21 days (% action, 100%=plants have died, 0%=no phytotoxic action).
# (§2) Trial Description Post-Emergence Test: The test plants are raised in plastics pots under greenhouse conditions as far as the 2- to 3-leaf stage. A standard soil is used as the cultivation substrate. The plants tested were: Maize (ZEAMX), Ipomea purpurea (PHBPU), Sorghum vulgare (SORVU), Euphorbia heterophylla (EPHHL), Panicum millenacearum (PANMI). At the 2- to 3-leaf stage, the herbicides are applied individually and as mixtures to the test plants. The test compounds are applied in the form of an aqueous suspension in 200 litres of water/ha. (A) was formulated as a SC50, and (B1), (B2) and (B3) were formulated as WP25; 1% adjuvant crop oil concentrate (Agridex) (v/v) was added to all treatments. The compounds were applied alone and in combination as tank mixtures. The rates of application depend on the optimum concentrations determined under field conditions and greenhouse conditions. Evaluation of the tests is made after 21 days (% action, 100%=plants have died, 0%=no phytotoxic action).
# Maize (ZEAMX) [2] = experiment: Pre-emergence test, Maize
# From the text: as §1
# [3] = tested on: Euphorbia heterophylla (EPHHL); experiment: Pre-emergence test, Euphorbia heterophylla
# From the text: as §1
# Ipomea purpurea (PHBPU) [4] = experiment: Post-emergence test, Ipomea purpurea
# From the text: as §1, §2
# [5] = tested on: Panicum millenacearum (PANMI); experiment: Pre-emergence test, Panicum millenacearum
# From the text: as §1
# Maize (ZEAMX) [6] = experiment: Post-emergence test, Maize
# From the text: as §1, §2
# [7] = tested on: Panicum millenacearum (PANMI); experiment: Post-emergence test, Panicum millenacearum
# From the text: as §1, §2
# Sorghum vulgare (SORVU) = experiment: Post-emergence test, Sorghum vulgare
# From the text: as §1, §2
# Ipomea purpurea (PHBPU) [8] = experiment: Pre-emergence test, Ipomea purpurea
# From the text: as §1
smiles,measurement,setting,value
"Cc1c(C(=O)c2cnn(C)c2O)ccc(S(C)(=O)=O)c1C1=NOCC1 [(B3), topramezone]",Observed plant damage EPHHL,[1]; rate 5 g/ha,0%
same,Observed plant damage EPHHL,[1]; rate 10 g/ha,20%
same,Observed plant damage EPHHL,[1]; rate 20 g/ha,50%
same,Observed plant damage EPHHL,[1]; rate 40 g/ha,65%
same,Observed plant damage EPHHL,[1]; rate 80 g/ha,90%
same,Observed plant damage ZEAMX,Maize (ZEAMX) [2]; rate 5 g/ha,0%
same,Observed plant damage ZEAMX,Maize (ZEAMX) [2]; rate 10 g/ha,0%
same,Observed plant damage ZEAMX,Maize (ZEAMX) [2]; rate 20 g/ha,0%
same,Observed plant damage ZEAMX,Maize (ZEAMX) [2]; rate 40 g/ha,0%
same,Observed plant damage ZEAMX,Maize (ZEAMX) [2]; rate 80 g/ha,0%
same,Observed plant damage EPHHL,[3]; rate 5 g/ha,0%
same,Observed plant damage EPHHL,[3]; rate 10 g/ha,0%
same,Observed plant damage EPHHL,[3]; rate 20 g/ha,0%
same,Observed plant damage EPHHL,[3]; rate 40 g/ha,0%
same,Observed plant damage EPHHL,[3]; rate 80 g/ha,30%
same,Observed plant damage PHBPU,Ipomea purpurea (PHBPU) [4]; rate 5 g/ha,35%
same,Observed plant damage PHBPU,Ipomea purpurea (PHBPU) [4]; rate 10 g/ha,55%
same,Observed plant damage PHBPU,Ipomea purpurea (PHBPU) [4]; rate 20 g/ha,20%
same,Observed plant damage PHBPU,Ipomea purpurea (PHBPU) [4]; rate 40 g/ha,25%
same,Observed plant damage PHBPU,Ipomea purpurea (PHBPU) [4]; rate 80 g/ha,80%
same,Observed plant damage PANMI,[5]; rate 5 g/ha,0%
same,Observed plant damage PANMI,[5]; rate 10 g/ha,0%
same,Observed plant damage PANMI,[5]; rate 20 g/ha,0%
same,Observed plant damage PANMI,[5]; rate 40 g/ha,0%
same,Observed plant damage PANMI,[5]; rate 80 g/ha,98%
same,Observed plant damage ZEAMX,Maize (ZEAMX) [6]; rate 5 g/ha,0%
same,Observed plant damage ZEAMX,Maize (ZEAMX) [6]; rate 10 g/ha,0%
same,Observed plant damage ZEAMX,Maize (ZEAMX) [6]; rate 20 g/ha,0%
same,Observed plant damage ZEAMX,Maize (ZEAMX) [6]; rate 40 g/ha,0%
same,Observed plant damage ZEAMX,Maize (ZEAMX) [6]; rate 80 g/ha,20%
same,Observed plant damage PANMI,[7]; rate 5 g/ha,0%
same,Observed plant damage PANMI,[7]; rate 10 g/ha,20%
same,Observed plant damage PANMI,[7]; rate 20 g/ha,80%
same,Observed plant damage PANMI,[7]; rate 40 g/ha,90%
same,Observed plant damage PANMI,[7]; rate 80 g/ha,90%
same,Observed plant damage SORVU,Sorghum vulgare (SORVU); rate 5 g/ha,0%
same,Observed plant damage SORVU,Sorghum vulgare (SORVU); rate 10 g/ha,0%
same,Observed plant damage SORVU,Sorghum vulgare (SORVU); rate 20 g/ha,0%
same,Observed plant damage SORVU,Sorghum vulgare (SORVU); rate 40 g/ha,0%
same,Observed plant damage SORVU,Sorghum vulgare (SORVU); rate 80 g/ha,0%
same,Observed plant damage PHBPU,Ipomea purpurea (PHBPU) [8]; rate 5 g/ha,0%
same,Observed plant damage PHBPU,Ipomea purpurea (PHBPU) [8]; rate 10 g/ha,0%
same,Observed plant damage PHBPU,Ipomea purpurea (PHBPU) [8]; rate 20 g/ha,0%
same,Observed plant damage PHBPU,Ipomea purpurea (PHBPU) [8]; rate 40 g/ha,0%
same,Observed plant damage PHBPU,Ipomea purpurea (PHBPU) [8]; rate 80 g/ha,55%
"Cn1nc(C(F)(F)F)c(CS(=O)(=O)C2=NOC(C)(C)C2)c1OC(F)F [(A), 3-[[[5-(difluoromethoxy)-1-methyl-3-(trifluoromethyl)-1H-pyrazol-4-yl]methyl]-sulfonyl]-4,5-dihydro-5,5-dimethyl-isoxazole]",Observed plant damage EPHHL,[1]; rate 12.5 g/ha,0%
same,Observed plant damage EPHHL,[1]; rate 25 g/ha,0%
same,Observed plant damage EPHHL,[1]; rate 50 g/ha,15%
same,Observed plant damage EPHHL,[1]; rate 100 g/ha,35%
same,Observed plant damage EPHHL,[1]; rate 200 g/ha,40%
same,Observed plant damage ZEAMX,Maize (ZEAMX) [2]; rate 12.5 g/ha,0%
same,Observed plant damage ZEAMX,Maize (ZEAMX) [2]; rate 25 g/ha,0%
same,Observed plant damage ZEAMX,Maize (ZEAMX) [2]; rate 50 g/ha,0%
same,Observed plant damage ZEAMX,Maize (ZEAMX) [2]; rate 100 g/ha,0%
same,Observed plant damage ZEAMX,Maize (ZEAMX) [2]; rate 200 g/ha,0%
same,Observed plant damage EPHHL,[3]; rate 12.5 g/ha,0%
same,Observed plant damage EPHHL,[3]; rate 25 g/ha,0%
same,Observed plant damage EPHHL,[3]; rate 50 g/ha,15%
same,Observed plant damage EPHHL,[3]; rate 100 g/ha,40%
same,Observed plant damage EPHHL,[3]; rate 200 g/ha,75%
same,Observed plant damage PHBPU,Ipomea purpurea (PHBPU) [4]; rate 12.5 g/ha,0%
same,Observed plant damage PHBPU,Ipomea purpurea (PHBPU) [4]; rate 25 g/ha,20%
same,Observed plant damage PHBPU,Ipomea purpurea (PHBPU) [4]; rate 50 g/ha,20%
same,Observed plant damage PHBPU,Ipomea purpurea (PHBPU) [4]; rate 100 g/ha,75%
same,Observed plant damage PHBPU,Ipomea purpurea (PHBPU) [4]; rate 200 g/ha,85%
same,Observed plant damage PANMI,[5]; rate 12.5 g/ha,0%
same,Observed plant damage PANMI,[5]; rate 25 g/ha,0%
same,Observed plant damage PANMI,[5]; rate 50 g/ha,70%
same,Observed plant damage PANMI,[5]; rate 100 g/ha,100%
same,Observed plant damage PANMI,[5]; rate 200 g/ha,100%
same,Observed plant damage ZEAMX,Maize (ZEAMX) [6]; rate 12.5 g/ha,0%
same,Observed plant damage ZEAMX,Maize (ZEAMX) [6]; rate 25 g/ha,0%
same,Observed plant damage ZEAMX,Maize (ZEAMX) [6]; rate 50 g/ha,0%
same,Observed plant damage ZEAMX,Maize (ZEAMX) [6]; rate 100 g/ha,0%
same,Observed plant damage ZEAMX,Maize (ZEAMX) [6]; rate 200 g/ha,0%
same,Observed plant damage PANMI,[7]; rate 12.5 g/ha,0%
same,Observed plant damage PANMI,[7]; rate 25 g/ha,35%
same,Observed plant damage PANMI,[7]; rate 50 g/ha,65%
same,Observed plant damage PANMI,[7]; rate 100 g/ha,65%
same,Observed plant damage PANMI,[7]; rate 200 g/ha,75%
same,Observed plant damage SORVU,Sorghum vulgare (SORVU); rate 12.5 g/ha,0%
same,Observed plant damage SORVU,Sorghum vulgare (SORVU); rate 25 g/ha,0%
same,Observed plant damage SORVU,Sorghum vulgare (SORVU); rate 50 g/ha,0%
same,Observed plant damage SORVU,Sorghum vulgare (SORVU); rate 100 g/ha,0%
same,Observed plant damage SORVU,Sorghum vulgare (SORVU); rate 200 g/ha,0%
same,Observed plant damage PHBPU,Ipomea purpurea (PHBPU) [8]; rate 12.5 g/ha,0%
same,Observed plant damage PHBPU,Ipomea purpurea (PHBPU) [8]; rate 25 g/ha,0%
same,Observed plant damage PHBPU,Ipomea purpurea (PHBPU) [8]; rate 50 g/ha,0%
same,Observed plant damage PHBPU,Ipomea purpurea (PHBPU) [8]; rate 100 g/ha,75%
same,Observed plant damage PHBPU,Ipomea purpurea (PHBPU) [8]; rate 200 g/ha,95%
"CS(=O)(=O)c1ccc(C(=O)C2C(=O)CCCC2=O)c(Cl)c1COCC(F)(F)F [(B2), tembotrione]",Observed plant damage EPHHL,[1]; rate 18.75 g/ha,65%
same,Observed plant damage EPHHL,[1]; rate 37.5 g/ha,75%
same,Observed plant damage EPHHL,[1]; rate 75 g/ha,80%
same,Observed plant damage EPHHL,[1]; rate 150 g/ha,98%
same,Observed plant damage EPHHL,[1]; rate 300 g/ha,100%
same,Observed plant damage ZEAMX,Maize (ZEAMX) [2]; rate 18.75 g/ha,0%
same,Observed plant damage ZEAMX,Maize (ZEAMX) [2]; rate 37.5 g/ha,0%
same,Observed plant damage ZEAMX,Maize (ZEAMX) [2]; rate 75 g/ha,0%
same,Observed plant damage ZEAMX,Maize (ZEAMX) [2]; rate 150 g/ha,0%
same,Observed plant damage ZEAMX,Maize (ZEAMX) [2]; rate 300 g/ha,0%
same,Observed plant damage EPHHL,[3]; rate 18.75 g/ha,0%
same,Observed plant damage EPHHL,[3]; rate 37.5 g/ha,0%
same,Observed plant damage EPHHL,[3]; rate 75 g/ha,0%
same,Observed plant damage EPHHL,[3]; rate 150 g/ha,100%
same,Observed plant damage EPHHL,[3]; rate 300 g/ha,100%
same,Observed plant damage PHBPU,Ipomea purpurea (PHBPU) [4]; rate 18.75 g/ha,0%
same,Observed plant damage PHBPU,Ipomea purpurea (PHBPU) [4]; rate 37.5 g/ha,25%
same,Observed plant damage PHBPU,Ipomea purpurea (PHBPU) [4]; rate 75 g/ha,55%
same,Observed plant damage PHBPU,Ipomea purpurea (PHBPU) [4]; rate 150 g/ha,60%
same,Observed plant damage PHBPU,Ipomea purpurea (PHBPU) [4]; rate 300 g/ha,60%
same,Observed plant damage PANMI,[5]; rate 18.75 g/ha,0%
same,Observed plant damage PANMI,[5]; rate 37.5 g/ha,0%
same,Observed plant damage PANMI,[5]; rate 75 g/ha,0%
same,Observed plant damage PANMI,[5]; rate 150 g/ha,40%
same,Observed plant damage PANMI,[5]; rate 300 g/ha,98%
same,Observed plant damage ZEAMX,Maize (ZEAMX) [6]; rate 18.75 g/ha,0%
same,Observed plant damage ZEAMX,Maize (ZEAMX) [6]; rate 37.5 g/ha,0%
same,Observed plant damage ZEAMX,Maize (ZEAMX) [6]; rate 75 g/ha,0%
same,Observed plant damage ZEAMX,Maize (ZEAMX) [6]; rate 150 g/ha,0%
same,Observed plant damage ZEAMX,Maize (ZEAMX) [6]; rate 300 g/ha,0%
same,Observed plant damage PANMI,[7]; rate 18.75 g/ha,0%
same,Observed plant damage PANMI,[7]; rate 37.5 g/ha,20%
same,Observed plant damage PANMI,[7]; rate 75 g/ha,20%
same,Observed plant damage PANMI,[7]; rate 150 g/ha,65%
same,Observed plant damage PANMI,[7]; rate 300 g/ha,50%
same,Observed plant damage SORVU,Sorghum vulgare (SORVU); rate 18.75 g/ha,0%
same,Observed plant damage SORVU,Sorghum vulgare (SORVU); rate 37.5 g/ha,0%
same,Observed plant damage SORVU,Sorghum vulgare (SORVU); rate 75 g/ha,0%
same,Observed plant damage SORVU,Sorghum vulgare (SORVU); rate 150 g/ha,0%
same,Observed plant damage SORVU,Sorghum vulgare (SORVU); rate 300 g/ha,0%
same,Observed plant damage PHBPU,Ipomea purpurea (PHBPU) [8]; rate 18.75 g/ha,0%
same,Observed plant damage PHBPU,Ipomea purpurea (PHBPU) [8]; rate 37.5 g/ha,0%
same,Observed plant damage PHBPU,Ipomea purpurea (PHBPU) [8]; rate 75 g/ha,0%
same,Observed plant damage PHBPU,Ipomea purpurea (PHBPU) [8]; rate 150 g/ha,20%
same,Observed plant damage PHBPU,Ipomea purpurea (PHBPU) [8]; rate 300 g/ha,75%
